Consider 2 molecules from ChEMBL document CHEMBL5226367, “Synthesis, Optical Properties, and Antiproliferative Evaluation of NBD-Triterpene Fluorescent Probes” (J Nat Prod, 2023).

For data set [1], the system named is HT-29. In words: Potency index, ratio of oleanolic acid IC50 to test compound IC50 for cytotoxicity against human HT-29 cells assessed as reduction in cell viability incubated for 72 hrs by MTT assay. Format: functional. (Tetrazolium assays rely on reduction of a dye to a coloured formazan, in cell work by metabolically active cells.)
The test system of data set [2] is B16-F10. In words: Potency index, ratio of oleanolic acid IC50 to test compound IC50 for cytotoxicity against mouse B16-F10 cells assessed as reduction in cell viability incubated for 72 hrs by MTT assay. In kind it is functional.
Data set [3] has as its system B16-F10. In words: Potency index, ratio of maslinic acid IC50 to test compound IC50 for cytotoxicity against mouse B16-F10 cells assessed as reduction in cell viability incubated for 72 hrs by MTT assay. Format: functional.
The subject of data set [4] is HepG2. In words: Induction of apoptosis in human HepG2 cells at IC50 concentration incubated for 24 hrs by Annexin V-FITC/PI staining based flow cytometric analysis. In kind it is functional, cell-based. (A flow cytometer gives signals particle by particle.)
The test system of data set [5] is HepG2. In words: Potency index, ratio of oleanolic acid IC50 to test compound IC50 for cytotoxicity against human HepG2 cells assessed as reduction in cell viability incubated for 72 hrs by MTT assay. In kind it is functional.
Data set [6] has as its system HT-29. In words: Potency index, ratio of maslinic acid IC50 to test compound IC50 for cytotoxicity against human HT-29 cells assessed as reduction in cell viability incubated for 72 hrs by MTT assay. In kind it is functional.
Data set [7] concerns HepG2. In words: Potency index, ratio of maslinic acid IC50 to test compound IC50 for cytotoxicity against human HepG2 cells assessed as reduction in cell viability incubated for 72 hrs by MTT assay. In kind it is functional.
A short description of data set [8]: Drug localization in cytoplasm of mouse B16-F10 cells assessed as green fluorescence at IC50 concentration incubated for 30 min to 24 hrs by DAPI staining based confocal microscopic analysis. Format: ADME, subcellular. As to conditions: time 30-1440 min.
Data set [9] can be described thus: Drug localization in cytoplasm of human HT-29 cells assessed as green fluorescence at IC50 concentration incubated for 30 min to 24 hrs by DAPI staining based confocal microscopic analysis. The conditions noted are these: time 30-1440 min. Format: ADME, subcellular.
The test system of data set [10] is B16-F10. In words: Cytotoxicity against mouse B16-F10 cells assessed as decrease in cell density at IC50 concentration. In kind it is functional, cell-based. The conditions noted are these: time 30-1440 min, TDE = time-dependent effect.
In data set [11] the test system is HepG2. In words: Cytotoxicity against human HepG2 cells assessed as decrease in cell density at IC50 concentration. In kind it is functional, cell-based. The conditions noted are these: time 30-1440 min, TDE = time-dependent effect.
The subject of data set [12] is HT-29. In words: Cytotoxicity against human HT-29 cells assessed as decrease in cell density at IC50 concentration. As to conditions: time 30-1440 min, TDE = time-dependent effect. Format: functional, cell-based.
Data set [13] concerns HT-29. In words: Induction of apoptosis in human HT-29 cells at IC50 concentration incubated for 24 hrs by Annexin V-FITC/PI staining based flow cytometric analysis. In kind it is functional, cell-based.
For data set [14], the system named is B16-F10. In words: Induction of apoptosis in mouse B16-F10 cells at IC50 concentration incubated for 24 hrs by Annexin V-FITC/PI staining based flow cytometric analysis. In kind it is functional, cell-based.
The nature of data set [15]: Drug localization in cytoplasm of human HepG2 cells assessed as green fluorescence at IC50 concentration incubated for 30 min to 24 hrs by DAPI staining based confocal microscopic analysis. Format: ADME, subcellular. The conditions noted are these: time 30-1440 min.
For data set [16], the system named is B16-F10. In words: Induction of apoptosis in mouse B16-F10 cells assessed as total apoptotic cells at IC50 concentration incubated for 72 hrs by Annexin V-FITC/PI staining based flow cytometric analysis relative to control. Format: functional.
For data set [17], the system named is HepG2. In words: Induction of apoptosis in human HepG2 cells assessed as total apoptotic cells at IC50 concentration incubated for 72 hrs by Annexin V-FITC/PI staining based flow cytometric analysis relative to control. In kind it is functional.
In data set [18] the test system is HT-29. In words: Induction of apoptosis in human HT-29 cells assessed as total apoptotic cells at IC50 concentration incubated for 72 hrs by Annexin V-FITC/PI staining based flow cytometric analysis relative to control. In kind it is functional.

Calls of active or inactive are those of the source. The rule behind the calls is not given here.

As for `CC1(C)CC[C@]2(C(=O)O)CC[C@]3(C)C(=CC[C@@H]4[C@@]5(C)C[C@@H](OC(=O)CCCCCNc6ccc([N+](=O)[O-])c7nonc67)[C@H](O)C(C)(C)[C@@H]5CC[C@]43C)[C@@H]2C1`, the Ratio IC50 in the data set with HT-29 [1] was determined as 65; with B16-F10 [2], 22; in the data set on B16-F10 [3], 7.4; in the data set on HepG2 [5], 15; in the data set with HT-29 [6], 5; with HepG2 [7], 7.1. Further, the result in the data set on HepG2 [4], in the data set with HT-29 [13] and in the data set on B16-F10 [14] was Active. The Drug uptake entry in data set [8], in data set [9] and in data set [15] was “Active” in each case. The Activity entry in the data set on B16-F10 [10], in the data set on HepG2 [11] and with HT-29 [12] was “Tde” each time.
`CC1(C)CC[C@]2(C(=O)O)CC[C@]3(C)C(=CC[C@@H]4[C@@]5(C)CC[C@H](OC(=O)CCCCCNc6ccc([N+](=O)[O-])c7nonc67)C(C)(C)[C@@H]5CC[C@]43C)[C@@H]2C1`: the Ratio IC50 in the data set with HT-29 [1] turned out to be 22; in the data set with B16-F10 [2] it was 44; in the data set on B16-F10 [3], 15; in the data set on HepG2 [5], 17; in the data set with HT-29 [6], 1.7; in the data set with HepG2 [7] it was 7.9. Moreover, the outcome with HepG2 [4], in the data set on HT-29 [13] and in the data set on B16-F10 [14] was Active. Moreover, the Activity was 31% in the data set on B16-F10 [16]; 31% in the data set on HepG2 [17]; 31% in the data set with HT-29 [18]; “Tde” in the data set with B16-F10 [10]; “Tde” in the data set on HepG2 [11]; “Tde” with HT-29 [12]. The Drug uptake result in data set [8], in data set [9] and in [15] was “Active” in each case.
